Tested on: cisplatin-induced emesis in ferrets
Test: Ferret emesis, cisplatin-induced retches and vomits (Assay 3)
Format: in vivo
Settings: Mustela putorius; p.o., cisplatin 10 mg/kg i.v. 60 minutes after oral dosing; 4 h observation; read-out: ferret emesis: ID90
Procedure: ASSAY 3: Ferret Emesis Individually housed male ferrets (1.0-2.5 kg) are dosed orally by gavage with test compound. Ten minutes later they are fed with approximately 10 g of tinned cat food. At 60 minutes following oral dosing, cisplatin (10 mg/kg) is given i.v. via a jugular vein catheter inserted under a brief period of halothane anaesthesia. The catheter is then removed, the jugular vein ligated and the skin incision closed. The ferrets recover rapidly from the anaesthetic and are mobile within 10-20 minutes. The animals are observed continuously during recovery from the anaesthetic and for 4 hours following the cisplatin injection. The numbers of retches and vomits occurring during the 4 hours after cisplatin administration are recorded by trained observers.

C[C@@H](O[C@H]1OCCN(Cc2n[nH]c(=O)[nH]2)[C@H]1c1ccc(F)cc1)c1cc(C(F)(F)F)cc(C(F)(F)F)c1 [2-(R)-(1-(R)-(3,5-bis(trifluoromethyl)phenyl)ethoxy)-3-(S)-(4-fluorophenyl)-4-(3-(5-oxo-1H, 4H-1,2,4-triazolo)methyl)-morpholine]
ED90: < 3 mg/kg
